Where a name gives a salt, the structure may show the parent alone.
Columns and labels:
[1] = biological target: T1, hmGluR5 (Homo sapiens, UniProt P41594); assay: inhibition of quisqualate-induced inositol phosphate turnover in hmGluR5 expressing cells; format: cell-based; conditions: agonist quisqualate, read-out: IC50 concentration, inhibition of quisqualate-induced inositol phosphate turnover
T1 construct: expressed in transfected cells
Excerpt: This can be determined in vitro for example at recombinant human metabotropic glutamate receptors, especially PLC-coupled subtypes thereof such as mGluR5, using different procedures like, for example, measurement of the inhibition of the agonist induced elevation of intracellular Ca^2+ concentration in accordance with L. P. Daggett et al., Neuropharm. Vol. 34, pages 871-886 (1995), P. J. Flor et al., J. Neurochem. Vol. 67, pages 58-63 (1996) or by determination to what extent the agonist induced elevation of the inositol phosphate turnover is inhibited as described by T. Knoepfel et al., Eur. J. Pharmacol. Vol. 288, pages 389-392 (1994), L. P. Daggett et al., Neuropharm. Vol. 67, pages 58-63 (1996) and references cited therein. Isolation and expression of human mGluR subtypes are described in U.S. Pat. No. 5,521,297. Selected agents of the invention show IC50 values for the inhibition of the agonist (e.g. glutamate or quisqualate) induced elevation of intracellular Ca2+ concentration or the agonist (e.g. glutamate or quisqualate) induced inositol phosphate turnover, measured in recombinant cells expressing hmGluR5a of about 1nM to about 50 μM.

[2] = test system: stress-induced hyperthermia; assay: stress-induced hyperthermia in mice; format: in vivo; conditions: control hyperthermia 0.98±0.08° C.
Experimental: A. Lecci et al., Psychopharmacol. 101, 255-261]. At doses of about 0.1 to about 30 mg/kg p.o., selected agents of the invention reverse the stress-induced hyperthermia.
With (±)-(1R,3R)-3-(4-Chloro-phenylamino)-1-(3-chloro-phenylethynyl)-cyclohexanol, a stress-induced hyperthermia of 0.98±0.08° C. was reduced to 0.66±0.06° C. at 1 mg/kg p.o., to […] at 3 mg/kg p.o.; to 0.58±0.06° C. at 10 mg/kg p.o. and to 0.33±0.04° C. at 30 mg/kg p.o. (p<0.05; p<0.0011; p<0.01; p<0.001 respectively).

T1 sequence (P41594 21-1180 isoform P41594-2 limits assumed): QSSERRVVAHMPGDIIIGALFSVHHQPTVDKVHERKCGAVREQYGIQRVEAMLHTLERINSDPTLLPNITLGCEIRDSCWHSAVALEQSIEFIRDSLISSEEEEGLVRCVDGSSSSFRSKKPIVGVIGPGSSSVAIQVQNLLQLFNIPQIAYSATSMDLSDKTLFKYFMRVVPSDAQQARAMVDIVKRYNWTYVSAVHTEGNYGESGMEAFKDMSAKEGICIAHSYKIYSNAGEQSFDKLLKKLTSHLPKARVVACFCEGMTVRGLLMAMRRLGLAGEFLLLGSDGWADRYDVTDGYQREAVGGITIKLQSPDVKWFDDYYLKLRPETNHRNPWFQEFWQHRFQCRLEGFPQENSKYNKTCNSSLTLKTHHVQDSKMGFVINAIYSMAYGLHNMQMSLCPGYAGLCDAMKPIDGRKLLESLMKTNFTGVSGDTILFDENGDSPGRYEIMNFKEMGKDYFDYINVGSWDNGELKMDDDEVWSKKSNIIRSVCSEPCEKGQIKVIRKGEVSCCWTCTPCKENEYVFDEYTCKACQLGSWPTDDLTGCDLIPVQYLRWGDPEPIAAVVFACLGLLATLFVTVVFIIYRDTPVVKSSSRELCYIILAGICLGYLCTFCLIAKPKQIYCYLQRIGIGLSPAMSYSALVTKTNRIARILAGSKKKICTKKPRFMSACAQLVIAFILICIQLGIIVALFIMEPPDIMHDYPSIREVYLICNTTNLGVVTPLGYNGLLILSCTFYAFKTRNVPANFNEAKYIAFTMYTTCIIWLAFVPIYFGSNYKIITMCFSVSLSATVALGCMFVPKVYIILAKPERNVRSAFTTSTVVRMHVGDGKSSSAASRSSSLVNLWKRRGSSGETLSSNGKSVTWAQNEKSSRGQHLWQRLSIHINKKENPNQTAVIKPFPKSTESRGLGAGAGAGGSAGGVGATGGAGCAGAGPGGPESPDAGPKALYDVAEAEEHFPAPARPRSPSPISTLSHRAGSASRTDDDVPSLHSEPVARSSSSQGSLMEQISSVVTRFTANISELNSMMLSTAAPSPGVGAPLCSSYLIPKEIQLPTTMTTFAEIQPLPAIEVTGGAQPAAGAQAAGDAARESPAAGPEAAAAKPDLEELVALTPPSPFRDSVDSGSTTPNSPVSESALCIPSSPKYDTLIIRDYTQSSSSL

O[C@]1(C#Cc2cccc(Cl)c2)CCC[C@@H](Nc2ccc(Cl)cc2)C1 (racemic) (as salt: hydrochloride) [Example 1, (±)-(1R,3R)-3-(4-Chloro-phenylamino)-1-(3-chloro-phenylethynyl)-cyclohexanol]
melting point: 153 to 163 °C

O[C@]1(C#Cc2cccc(Cl)c2)CCC[C@@H](Nc2ccc(Cl)cc2)C1 (racemic) [Example 1, (±)-(1R,3R)-3-(4-Chloro-phenylamino)-1-(3-chloro-phenylethynyl)-cyclohexanol]
IC50 [1]: 1.6 µM | stress-induced hyperthermia after treatment ([2]; 1 mg/kg p.o., p<0.05): 0.66±0.06 °C | stress-induced hyperthermia after treatment ([2]; 3 mg/kg p.o., p<0.0011): 0.43±10 °C | stress-induced hyperthermia after treatment ([2]; 10 mg/kg p.o., p<0.01): 0.58±0.06 °C | stress-induced hyperthermia after treatment ([2]; 30 mg/kg p.o., p<0.001): 0.33±0.04 °C

O[C@@]1(C#Cc2cccc(Cl)c2)CCC[C@H](Nc2cc(-c3ccco3)[nH]n2)C1 [Example 1.26, (1S,3S)-1-(3-Chloro-phenylethynyl)-3-(5-furan-2-yl-1H-pyrazol-3-ylamino)-cyclohexanol]
melting point: 83 to 88 °C

O[C@]1(C#Cc2cccc(Cl)c2)CCC[C@@H](Nc2cc(-c3ccco3)[nH]n2)C1 [Example 1.27, (1R,3R)-1-(3-Chloro-phenylethynyl)-3-(5-furan-2-yl-1H-pyrazol-3-ylamino)-cyclohexanol]
melting point: 78 to 85 °C

— US20080188490A1, “Acetylene Derivatives” (priority 2005, published 2008)
